Holding throughout (conditions): incubation time: 72 h
Experiment [1] deals with BT-474. In words: normalised viability (% of control), CellTiter-Blue; higher = more viable cells (100 = DMSO, 0 = benzethonium chloride kill control). The method, then: (§1)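 DSRT, CellTiter-Blue viability, 72 h incubation. Signal is normalised to DMSO and benzethonium chloride controls. Value is the normalised response at dose 1.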
Background: Resazurin is reduced to fluorescent resorufin, in cell work by metabolically active cells.

In experiment [2] the test system is BT-549. Described as above. As to the method: as §1
The next experiment concerns CAL-120. The experiment is described as above. The method, then: as §1
A further experiment concerns CAL-51. The description is as above. As to the method:
as §1

For a further experiment, the system named is CAL-85-1. Described as above. The method, then: as §1
For experiment [3], the system named is HCC1143. The description is as above. As to the method:
as §1

The subject of another experiment is HCC1599. The experiment is described as above. As to the method: as §1
Experiment [4] has as its system HCC1937. The description is as above. The method, then: as §1
For experiment [5], the system named is HDQ-P1. Described as above. The method, then: as §1
The subject of experiment [6] is Hs578T. The experiment is described as above. As to the method:
as §1

A further experiment concerns MDA-MB-231. Described as above. The method, then: as §1
Experiment [7] relates to MDA-MB-436. Described as above. The method, then:
as §1

In a further experiment the test system is MDA-MB-453. Described as above. As to the method: as §1
The subject of experiment [8] is MFM-223. The description is as above. The method, then:
as §1

The test system of experiment [9] is SK-BR-3. The experiment is described as above. The method, then: as §1
The subject of experiment [10] is BT-474. As to the kind of experiment: drug sensitivity score (DSS), CellTiter-Glo (DSS (AUC-based score)); higher = stronger drug effect (viability inhibition or cytotoxicity); extreme values may be limits of the assay. The essentials: (§2)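 Breast cancer cell lines, seeded as 20 µl suspension, were incubated 72 h with compound in 384-well plates at 5 concentrations in 10-fold steps over a 10,000-fold range set for each compound. Fluorescence from CellTox Green was read at 485/520 nm before CellTiter-Glo luminescence, which was read after 10 min at room temperature. Every plate was normalised to 0.1 % DMSO and a positive kill control, and the drug sensitivity score was taken from the area under the fitted dose-response curve.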

The test system of experiment [11] is BT-549. The experiment is described as above. The essentials:
as §2

The test system of experiment [12] is HCC1143. Described as above. The gist of the method:
as §2

In experiment [13] the test system is HCC1937. The description is as above. The essentials: as §2
Experiment [14] has as its system HDQ-P1. The experiment is described as above. The gist of the method:
as §2

In experiment [15] the test system is Hs578T. Described as above. The gist of the method: as §2
The subject of the next experiment is MCF-10A. The experiment is described as above. The gist of the method: as §2
The test system of experiment [16] is MDA-MB-436. Described as above. The essentials: as §2
Another experiment relates to MDA-MB-468. The experiment is described as above. The essentials:
as §2

Experiment [17] relates to MFM-223. The description is as above. The essentials: as §2
Experiment [18] concerns SK-BR-3. The experiment is described as above. The gist of the method:
as §2

The subject of the next experiment is CAL-148. In words: normalised viability (% of control), CellTiter-Blue; higher = more viable cells (100 = DMSO, 0 = benzethonium chloride kill control). As to the method: as §1

Where “and” joins values, the source holds several entries; their conditions need not be identical. Equal values may be shown once.

As to `Nc1ncn([C@H]2C[C@H](O)[C@@H](CO)O2)c(=O)n1` [Decitabine], the normalised viability is 98.4% and 79.8% in the experiment with BT-474 [1] (1 nM); 110% and 109% with BT-549 [2] (1 nM); 84.8% and 82.6% in the experiment with CAL-120 (1 nM); 113% and 104% in the experiment on CAL-51 (1 nM); 81.4% and 95.5% in the experiment with CAL-85-1 (1 nM); 88.1% and 95.7% in the experiment with HCC1143 [3] (1 nM). Moreover, the normalised viability was 107% and 109% with HCC1599 (1 nM); 95.8% and 102% with HCC1937 [4] (1 nM); 114% and 108% with HDQ-P1 [5] (1 nM); 90.4% and 111% in the experiment with Hs578T [6] (1 nM); 111% and 91.6% with MDA-MB-231 (1 nM); 94.8% and 84.5% with MDA-MB-436 [7] (1 nM). Besides, the normalised viability with MDA-MB-453 (1 nM) was 93% and 107%; with MFM-223 [8] (1 nM) it was 82.4% and 104%; with SK-BR-3 [9] (1 nM), 82% and 93.2%. Besides, the drug sensitivity score in the experiment on BT-474 [10] is 0.527; in the experiment with BT-549 [11], 3.92; in the experiment on HCC1143 [12], 0; in the experiment with HCC1937 [13] it was 1.42; in the experiment with HDQ-P1 [14], 0.141; with Hs578T [15] it was 0.0828. In addition, the drug sensitivity score in the experiment on MCF-10A was 0; in the experiment with MDA-MB-436 [16] it was 0; in the experiment on MDA-MB-468, 19; in the experiment with MFM-223 [17], 0; in the experiment on SK-BR-3 [18] it was 0.
`O=C(/C=C/c1cccnc1)NCCCCC1CCN(C(=O)c2ccccc2)CC1` [FK-866]: the normalised viability in the experiment on BT-474 [1] (0.1 nM) was determined as 99.3%; in the experiment on BT-549 [2] (0.1 nM) it was 97.3%; with CAL-120 (0.1 nM) it was 106%; in the experiment on CAL-148 (0.1 nM), 110%; in the experiment with CAL-51 (0.1 nM), 101%; in the experiment on CAL-85-1 (0.1 nM), 85.7%. Also, the normalised viability in the experiment on HCC1143 [3] (0.1 nM) turned out to be 97.5%; in the experiment with HCC1599 (0.1 nM) it was 105%; in the experiment with HCC1937 [4] (0.1 nM), 107%; with HDQ-P1 [5] (0.1 nM), 105%; in the experiment with Hs578T [6] (0.1 nM), 105%; with MDA-MB-231 (0.1 nM), 96.6%. Further, the normalised viability amounted to 107% in the experiment on MDA-MB-436 [7] (0.1 nM), 103% in the experiment on MDA-MB-453 (0.1 nM), 105% in the experiment with MFM-223 [8] (0.1 nM) and 94.4% with SK-BR-3 [9] (0.1 nM).
For `CC[C@H](Nc1ncnc2[nH]cnc12)c1nc2cccc(F)c2c(=O)n1-c1ccccc1` [GS-1101], the drug sensitivity score with BT-474 [10] was determined as 2.65; with BT-549 [11], 2.49; with HCC1143 [12], 0; with HCC1937 [13], 0; with HDQ-P1 [14] it was 1.93; with Hs578T [15], 0. For the same compound, the drug sensitivity score was 0 in the experiment on MCF-10A; 3.18 in the experiment on MDA-MB-436 [16]; 2.6 in the experiment on MDA-MB-468; 0 in the experiment on MFM-223 [17]; 0 with SK-BR-3 [18].
`C=CC(=O)N1CCC[C@@H](n2nc(-c3ccc(Oc4ccccc4)cc3)c3c(N)ncnc32)C1` [Ibrutinib]: the drug sensitivity score with BT-474 [10] worked out at 0; with BT-549 [11], 0; in the experiment on HCC1143 [12], 0; with HCC1937 [13], 0; with HDQ-P1 [14], 3.29; in the experiment on Hs578T [15], 0. Also, the drug sensitivity score with MCF-10A worked out at 4.67; in the experiment with MDA-MB-436 [16], 0; with MDA-MB-468, 0.811; with MFM-223 [17], 0; with SK-BR-3 [18], 17.4.
On to `C=CCc1cccc(/C=N/NC(=O)CN2CCN(Cc3ccccc3)CC2)c1O` [PAC-1], for which the drug sensitivity score in the experiment on BT-474 [10] amounted to 2.94; in the experiment with BT-549 [11], 7.1; with HCC1143 [12] it was 1.38; in the experiment on HCC1937 [13], 3.44; in the experiment with HDQ-P1 [14], 1.79; with Hs578T [15] it was 0. Besides, the drug sensitivity score stood at 0 in the experiment with MCF-10A; 5.19 with MDA-MB-436 [16]; 3.77 in the experiment with MDA-MB-468; 1.4 with MFM-223 [17]; 3.2 with SK-BR-3 [18].
For `CC[C@H](C)C(=O)O[C@H]1C[C@H](O)C=C2C=C[C@H](C)[C@H](CC[C@@H](O)C[C@@H](O)CC(=O)O)[C@H]21` [Pravastatin], the drug sensitivity score with BT-474 [10] turned out to be 3.69; in the experiment on BT-549 [11], 2.77; with HCC1143 [12], 2.94; in the experiment on HCC1937 [13], 3.68; with HDQ-P1 [14] it was 1.68; in the experiment on Hs578T [15], 0. Further, the drug sensitivity score with MCF-10A came out at 0; in the experiment on MDA-MB-436 [16] it was 26.2; in the experiment with MDA-MB-468, 3.34; in the experiment on MFM-223 [17], 2.84; with SK-BR-3 [18] it was 4.87.
As for `Cc1cnc(NC(=O)Nc2cc(Br)c(C)cc2OC[C@@H]2CNCCO2)cn1` [Rabusertib], the drug sensitivity score with BT-474 [10] came out at 0; with BT-549 [11] it was 0; with HCC1143 [12], 0; with HCC1937 [13], 0; in the experiment on HDQ-P1 [14], 0; with Hs578T [15] it was 1.2. Moreover, the drug sensitivity score in the experiment on MCF-10A amounted to 0; with MDA-MB-436 [16] it was 0; in the experiment on MDA-MB-468, 0; with MFM-223 [17], 0; with SK-BR-3 [18] it was 1.38.
In the case of `CNC(=O)c1cc(Oc2ccc(NC(=O)Nc3cc(C(C)(C)C)nn3-c3ccc4ncccc4c3)c(F)c2)ccn1` [Rebastinib], the drug sensitivity score in the experiment on BT-474 [10] came to 0.877; with BT-549 [11], 0; in the experiment on HCC1143 [12], 0; in the experiment on HCC1937 [13], 0; with HDQ-P1 [14], 0; in the experiment on Hs578T [15], 0. In addition, the drug sensitivity score in the experiment on MCF-10A is 0; in the experiment on MDA-MB-436 [16], 0; in the experiment on MDA-MB-468 it was 0; in the experiment with MFM-223 [17], 6.56; in the experiment on SK-BR-3 [18], 0.
Turning to `CC(=O)Nc1cccc(-n2c(=O)n(C3CC3)c(=O)c3c(Nc4ccc(I)cc4F)n(C)c(=O)c(C)c32)c1` [Trametinib], the drug sensitivity score with BT-474 [10] is 5.25; in the experiment on BT-549 [11], 0; in the experiment with HCC1143 [12], 0; in the experiment on HCC1937 [13], 3.49; with HDQ-P1 [14], 10.8; with Hs578T [15] it was 2.9. The drug sensitivity score amounted to 20.3 in the experiment on MCF-10A; 0.966 in the experiment on MDA-MB-436 [16]; 1.05 in the experiment with MDA-MB-468; 1.88 in the experiment with MFM-223 [17]; 0 in the experiment on SK-BR-3 [18].
Consider `C1CN1c1nc(N2CC2)nc(N2CC2)n1` [Triethylenemelamine], for which the normalised viability with BT-474 [1] (1 nM) is 117%; with BT-549 [2] (1 nM) it was 107%; in the experiment with CAL-120 (1 nM), 103%; in the experiment on CAL-148 (1 nM), 108%; with CAL-51 (1 nM) it was 101%; in the experiment on CAL-85-1 (1 nM), 107%. Besides, the normalised viability is 101% in the experiment on HCC1143 [3] (1 nM); 76.4% in the experiment on HCC1599 (1 nM); 86.6% in the experiment with HCC1937 [4] (1 nM); 109% in the experiment on HDQ-P1 [5] (1 nM); 108% with Hs578T [6] (1 nM); 96.2% in the experiment with MDA-MB-231 (1 nM). Also, the normalised viability in the experiment on MDA-MB-436 [7] (1 nM) was determined as 98.5%; in the experiment on MDA-MB-453 (1 nM), 104%; in the experiment on MFM-223 [8] (1 nM), 100%; with SK-BR-3 [9] (1 nM), 99%.
For the compound `COc1cc2c(NC3CCN(C(C)C)CC3)nc(C3CCCCC3)nc2cc1OCCCN1CCCC1` [UNC0638], the drug sensitivity score with BT-474 [10] turned out to be 6.49; in the experiment with BT-549 [11], 6.76; in the experiment on HCC1143 [12], 3.85; in the experiment on HCC1937 [13], 5.15; in the experiment with HDQ-P1 [14] it was 3.3; with Hs578T [15] it was 0. Also, the drug sensitivity score with MCF-10A came out at 7.1; in the experiment on MDA-MB-436 [16], 6.5; in the experiment with MDA-MB-468 it was 8.02; with MFM-223 [17] it was 6.13; in the experiment on SK-BR-3 [18], 6.09.

These data come from the supplement of paper PMC4862054.
